In ChEMBL document CHEMBL1145476, “Inhibitory activities of three classes of acyclic nucleoside phosphonates against murine polyomavirus and primate simian virus 40 strains” (Antimicrob Agents Chemother, 2007):
One block for each molecule: values may come before it.

Tests used:
[1] = Selectivity index, ratio of CC50 for mouse UC1B cells to EC50 of Murine polyomavirus MN/RDE Toronto; format: functional
Simian virus 40 [2] = assay: Antiviral activity against Simian virus 40 PML2 DAR in african green monkey BSC1 cells assessed as reduction of virus-induced cytopathogenicity; format: functional, organism-based; details: Betapolyomavirus macacae, BSC-1
[3] = Selectivity index, ratio of CC50 for african green monkey BSC1 cells ot EC50 for Simian virus 40 A2895; format: functional, BSC-1
[4] = Selectivity index, ratio of CC50 for mouse UC1B cells to EC50 of Murine polyomavirus 2PTA2; format: functional
Murine polyomavirus [5] = assay: Antiviral activity against Murine polyomavirus LID1 ATCC VR-252 in mouse UC1B cells assessed as reduction of virus-induced cytopathogenicity; format: functional, cell-based; details: Alphapolyomavirus muris
[6] = Cytotoxicity against mouse UC1B cells; format: cell-based
[7] = Selectivity index, ratio of CC50 for african green monkey BSC1 cells ot EC50 for Simian virus 40 PML2 DAR; format: functional, BSC-1
[8] = Selectivity index, ratio of CC50 for mouse UC1B cells to EC50 of Murine polyomavirus PTA; format: functional
Murine polyomavirus [9] = assay: Antiviral activity against Murine polyomavirus 2PTA2 in mouse UC1B cells assessed as reduction of virus-induced cytopathogenicity; format: functional, cell-based; details: Alphapolyomavirus muris, 2PTA2, UC1B
Murine polyomavirus [10] = assay: Antiviral activity against Murine polyomavirus MN/RDE Toronto in mouse UC1B cells assessed as reduction of virus-induced cytopathogenicity; format: functional, cell-based; details: Alphapolyomavirus muris
[11] = Cytotoxicity against african green monkey BSC1 cells; format: cell-based, BSC-1; details: chlorocebus aethiops
[12] = Selectivity index, ratio of CC50 for african green monkey BSC1 cells ot EC50 for Simian virus 40 PML1 EK; format: functional, BSC-1
[13] = Selectivity index, ratio of CC50 for mouse UC1B cells to EC50 of Murine polyomavirus LID1; format: functional
Murine polyomavirus [14] = assay: Antiviral activity against Murine polyomavirus PTA in mouse UC1B cells assessed as reduction of virus-induced cytopathogenicity; format: functional, cell-based; details: Alphapolyomavirus muris
Simian virus 40 [15] = assay: Antiviral activity against Simian virus 40 A2895 in african green monkey BSC1 cells assessed as reduction of virus-induced cytopathogenicity; format: functional, organism-based; details: Betapolyomavirus macacae, A2895, BSC-1
Simian virus 40 [16] = assay: Antiviral activity against Simian virus 40 PML1 EK in african green monkey BSC1 cells assessed as reduction of virus-induced cytopathogenicity; format: functional, organism-based; details: Betapolyomavirus macacae, BSC-1
Simian virus 40 [17] = assay: Antiviral activity against Simian virus 40 A2895 in african green monkey BSC1 cells assessed as reduction of virus yield; format: functional; details: Betapolyomavirus macacae, A2895, BSC-1
Murine polyomavirus [18] = assay: Antiviral activity against Murine polyomavirus LID1 in UC1B cells assessed as reduction of virus yield; format: functional; details: Alphapolyomavirus muris
Murine polyomavirus [19] = assay: Antiviral activity against Murine polyomavirus PTA in UC1B cells assessed as reduction of virus yield; format: functional; details: Alphapolyomavirus muris

EC50 (Simian virus 40 [2]): 16.1 µM
EC50 (Murine polyomavirus [5]): 16.1 µM
EC50 (Murine polyomavirus [9]): 13.9 µM
EC50 (Murine polyomavirus [10]): 9.6 µM
EC50 (Murine polyomavirus [14]): 13.9 µM
EC50 (Simian virus 40 [15]): 16.1 µM
EC50 (Simian virus 40 [16]): 14.6 µM
SMILES: Nc1ncn(C[C@@H](CO)OCP(=O)(O)O)c(=O)n1
Ratio CC50/EC50 [1]: 30.6
Ratio CC50/EC50 [3]: 27.1
Ratio CC50/EC50 [4]: 21.1
CC50 [6]: 294 µM
Ratio CC50/EC50 [7]: 27.4
Ratio CC50/EC50 [8]: 21.1
CC50 [11]: 436 µM
Ratio CC50/EC50 [12]: 29.9
Ratio CC50/EC50 [13]: 18.2

EC50 (Simian virus 40 [2]): 47.1 µM
EC50 (Murine polyomavirus [5]): 9.1 µM
EC50 (Murine polyomavirus [9]): 6.3 µM
EC50 (Murine polyomavirus [10]): 7.2 µM
EC50 (Murine polyomavirus [14]): 8.2 µM
EC50 (Simian virus 40 [15]): 49.3 µM
EC50 (Simian virus 40 [16]): 33.6 µM
SMILES: Nc1nc(N)c2ncn(C[C@@H](CO)OCP(=O)(O)O)c2n1
Ratio CC50/EC50 [1]: 3
Ratio CC50/EC50 [3]: 4.4
Ratio CC50/EC50 [4]: 3.4
CC50 [6]: 21.4 µM
Ratio CC50/EC50 [7]: 4.6
Ratio CC50/EC50 [8]: 2.6
CC50 [11]: 217 µM
Ratio CC50/EC50 [12]: 6.5
Ratio CC50/EC50 [13]: 2.4

EC50 (Simian virus 40 [2]): 112 µM
EC50 (Murine polyomavirus [5]): 8.2 µM
EC50 (Murine polyomavirus [9]): 13.9 µM
EC50 (Murine polyomavirus [10]): 11.2 µM
EC50 (Murine polyomavirus [14]): 10.9 µM
EC50 (Simian virus 40 [15]): 72.8 µM
EC50 (Simian virus 40 [16]): 73.1 µM
SMILES: Nc1cc(OC[C@@H](CO)OCP(=O)(O)O)nc(N)n1
Ratio CC50/EC50 [1]: 0.9
Ratio CC50/EC50 [3]: 1.9
Ratio CC50/EC50 [4]: 0.8
CC50 [6]: 10.5 µM
Ratio CC50/EC50 [7]: 1.2
Ratio CC50/EC50 [8]: 1
CC50 [11]: 140 µM
Ratio CC50/EC50 [12]: 1.9
Ratio CC50/EC50 [13]: 1.3

EC50 (Simian virus 40 [2]): 10.2 µM
EC50 (Murine polyomavirus [5]): 13.2 µM
EC50 (Murine polyomavirus [9]): 9.5 µM
EC50 (Murine polyomavirus [10]): 9.5 µM
EC50 (Murine polyomavirus [14]): 14.5 µM
EC50 (Simian virus 40 [15]): 12.3 µM
EC50 (Simian virus 40 [16]): 15.4 µM
SMILES: Nc1ncnc2c1ncn2C[C@@H](CO)OCP(=O)(O)O
Ratio CC50/EC50 [1]: 2.6
Ratio CC50/EC50 [3]: 7.3
Ratio CC50/EC50 [4]: 2.6
CC50 [6]: 24.3 µM
Ratio CC50/EC50 [7]: 8.8
Ratio CC50/EC50 [8]: 1.7
CC50 [11]: 89.3 µM
Ratio CC50/EC50 [12]: 5.8
Ratio CC50/EC50 [13]: 1.8

EC50 (Simian virus 40 [2]): 181 µM
EC50 (Murine polyomavirus [5]): 12.1 µM
EC50 (Murine polyomavirus [9]): 15.9 µM
EC50 (Murine polyomavirus [10]): 21.2 µM
EC50 (Murine polyomavirus [14]): 9.5 µM
EC50 (Simian virus 40 [15]): 148 µM
EC50 (Simian virus 40 [16]): 140 µM
SMILES: Nc1cc(OCCOCP(=O)(O)O)nc(N)n1
Ratio CC50/EC50 [1]: 2
Ratio CC50/EC50 [3]: 0.5
Ratio CC50/EC50 [4]: 2.7
CC50 [6]: 43.2 µM
Ratio CC50/EC50 [7]: 0.4
Ratio CC50/EC50 [8]: 4.5
CC50 [11]: 72.8 µM
Ratio CC50/EC50 [12]: 0.5
Ratio CC50/EC50 [13]: 3.6

The next lines start with the molecule.

SMILES: Nc1ncnc2c1ncn2C[C@H]1COP(=O)(O)CO1
Ratio CC50/EC50 [1]: 4.9
EC50 (Simian virus 40 [2]): 38.3 µM
Ratio CC50/EC50 [3]: 11.4
Ratio CC50/EC50 [4]: 4
EC50 (Murine polyomavirus [5]): 58.6 µM
CC50 [6]: 190 µM
Ratio CC50/EC50 [7]: 9.7
Ratio CC50/EC50 [8]: 2.9
EC50 (Murine polyomavirus [9]): 47.4 µM
EC50 (Murine polyomavirus [10]): 39 µM
CC50 [11]: 371 µM
Ratio CC50/EC50 [12]: 7.5
Ratio CC50/EC50 [13]: 3.2
EC50 (Murine polyomavirus [14]): 65.3 µM
EC50 (Simian virus 40 [15]): 32.6 µM
EC50 (Simian virus 40 [16]): 49.8 µM

SMILES: Nc1ncn(C[C@H]2COP(=O)(O)CO2)c(=O)n1
Ratio CC50/EC50 [1]: 8.1
EC50 (Simian virus 40 [2]): 19.1 µM
Ratio CC50/EC50 [3]: 16.3
Ratio CC50/EC50 [4]: 6.8
EC50 (Murine polyomavirus [5]): 38.1 µM
CC50 [6]: 139 µM
Ratio CC50/EC50 [7]: 16.9
Ratio CC50/EC50 [8]: 4.3
EC50 (Murine polyomavirus [9]): 20.6 µM
EC50 (Murine polyomavirus [10]): 17.1 µM
CC50 [11]: 323 µM
Ratio CC50/EC50 [12]: 16.3
Ratio CC50/EC50 [13]: 3.7
EC50 (Murine polyomavirus [14]): 32 µM
EC50 (Simian virus 40 [15]): 19.8 µM
EC50 (Simian virus 40 [16]): 19.8 µM

SMILES: CCCCCCCCCCCCCCCCOCCOP1(=O)CO[C@@H](Cn2cnc(N)nc2=O)CO1 (stereo not given in full)
Ratio CC50/EC50 [1]: 34.2
EC50 (Simian virus 40 [2]): 0.34 µM
EC99 (Simian virus 40 [17]): 0.26 µM
Ratio CC50/EC50 [3]: 44.7
Ratio CC50/EC50 [4]: 33.6
EC50 (Murine polyomavirus [5]): 0.88 µM
CC50 [6]: 18.8 µM
Ratio CC50/EC50 [7]: 39.4
Ratio CC50/EC50 [8]: 35.5
EC50 (Murine polyomavirus [9]): 0.56 µM
EC50 (Murine polyomavirus [10]): 0.55 µM
CC50 [11]: 13.4 µM
Ratio CC50/EC50 [12]: 58.3
EC99 (Murine polyomavirus [18]): 0.81 µM
EC99 (Murine polyomavirus [19]): 0.43 µM
Ratio CC50/EC50 [13]: 21.4
EC50 (Murine polyomavirus [14]): 0.53 µM
EC50 (Simian virus 40 [15]): 0.3 µM
EC50 (Simian virus 40 [16]): 0.23 µM

SMILES: Nc1nccc2c1ncn2C[C@@H](CO)OCP(=O)(O)O
Ratio CC50/EC50 [1]: 4.9
EC50 (Simian virus 40 [2]): 7.3 µM
Ratio CC50/EC50 [3]: 3.1
Ratio CC50/EC50 [4]: 4.2
EC50 (Murine polyomavirus [5]): 13.9 µM
CC50 [6]: 49 µM
Ratio CC50/EC50 [7]: 6
Ratio CC50/EC50 [8]: 3.3
EC50 (Murine polyomavirus [9]): 11.6 µM
EC50 (Murine polyomavirus [10]): 9.9 µM
CC50 [11]: 43.7 µM
Ratio CC50/EC50 [12]: 7.3
Ratio CC50/EC50 [13]: 3.5
EC50 (Murine polyomavirus [14]): 14.9 µM
EC50 (Simian virus 40 [15]): 13.9 µM
EC50 (Simian virus 40 [16]): 6 µM

SMILES: Nc1ncnc2c1ncn2CCOCP(=O)(O)O [ADEFOVIR]
Ratio CC50/EC50 [1]: 2.5
EC50 (Simian virus 40 [2]): 126 µM
Ratio CC50/EC50 [3]: 1.3
Ratio CC50/EC50 [4]: 1.9
EC50 (Murine polyomavirus [5]): 9.9 µM
CC50 [6]: 24.2 µM
Ratio CC50/EC50 [7]: 1.7
Ratio CC50/EC50 [8]: 2.1
EC50 (Murine polyomavirus [9]): 12.8 µM
EC50 (Murine polyomavirus [10]): 9.5 µM
CC50 [11]: 210 µM
Ratio CC50/EC50 [12]: 1.3
Ratio CC50/EC50 [13]: 2.4
EC50 (Murine polyomavirus [14]): 11.3 µM
EC50 (Simian virus 40 [15]): 158 µM
EC50 (Simian virus 40 [16]): 168 µM

SMILES: Nc1ccn(C[C@@H](CO)OCP(=O)(O)O)c(=O)n1.O.O [CIDOFOVIR]
Ratio CC50/EC50 [1]: 13
EC50 (Simian virus 40 [2]): 17.8 µM
Ratio CC50/EC50 [3]: 22.3
Ratio CC50/EC50 [4]: 8.9
EC50 (Murine polyomavirus [5]): 18.7 µM
CC50 [6]: 169 µM
Ratio CC50/EC50 [7]: 23.8
Ratio CC50/EC50 [8]: 10.4
EC50 (Murine polyomavirus [9]): 19 µM
EC50 (Murine polyomavirus [10]): 13 µM
CC50 [11]: 424 µM
Ratio CC50/EC50 [12]: 21.9
Ratio CC50/EC50 [13]: 9
EC50 (Murine polyomavirus [14]): 16.2 µM
EC50 (Simian virus 40 [15]): 19 µM
EC50 (Simian virus 40 [16]): 19.3 µM

SMILES: Nc1ccn(C[C@H]2COP(=O)(O)CO2)c(=O)n1 [CYCLIC CIDOFOVIR]
Ratio CC50/EC50 [1]: 16.7
EC50 (Simian virus 40 [2]): 18.5 µM
Ratio CC50/EC50 [3]: >=30.3
Ratio CC50/EC50 [4]: 9.5
EC50 (Murine polyomavirus [5]): 42 µM
CC50 [6]: 582 µM
Ratio CC50/EC50 [7]: >=36.3
Ratio CC50/EC50 [8]: 10.7
EC50 (Murine polyomavirus [9]): 61.2 µM
EC50 (Murine polyomavirus [10]): 34.9 µM
CC50 [11]: ≥ 672 µM
Ratio CC50/EC50 [12]: >=32.3
Ratio CC50/EC50 [13]: 13.8
EC50 (Murine polyomavirus [14]): 54.4 µM
EC50 (Simian virus 40 [15]): 22.2 µM
EC50 (Simian virus 40 [16]): 20.8 µM
